Results as given in patent publication US9131690B2, “Macrocyclic picolinamides as fungicides” (Dow AgroSciences LLC, priority 2012, dated 2015).
Where two headings read alike, the source gives them in different places.

What was measured:
[1] = test system: Mycosphaerella graminicola; Anamorph: Septoria tritici; experiment: Fungicidal activity: Leaf Blotch of Wheat (SEPTTR), wheat plants variety Yuma; type: in vivo; conditions: Zymoseptoria tritici
Procedure, shortened: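 Greenhouse wheat seedlings at first-leaf stage, 7-10 per pot, inoculated with aqueous Septoria tritici spore suspension before or after fungicide treatment. Kept at 100% relative humidity (1 day dark dew chamber, then 2-3 days lighted), then greenhouse at 20° C. for disease development.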

[2] = test system: Puccinia triticina. Synonym: Puccinia recondite f. sp. tritici; experiment: Fungicidal activity: Wheat Brown Rust (PUCCRT), wheat plants variety Yuma; type: in vivo; design: key to PUCCRT 3DC Disease Control: A: 50-100; B: More than 0-Less than 50; C: Not Tested; D: No activity noticed in this bioassay; conditions: for PUCCRT 3DC Disease Control: 100 ppm; for pest or weed control at 100 ppm: Puccinia triticina
Procedure, shortened: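 Yuma wheat seedlings at first-leaf stage were inoculated with P. triticina spore suspension before or after fungicide treatment. Plants were held overnight at 100% relative humidity, then kept in a 24 C greenhouse for disease development.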

[3] = 24 h, 1 Day Protectant, read-out: SEPTTR 1DP Disease Control
[4] = 72 h, 3 Day Curative, read-out: SEPTTR 3DC Disease Control
[5] = 24 h, 1 Day Protectant, read-out: PUCCRT 1DP Disease Control
[6] = 72 h, 3 Day Curative, read-out: PUCCRT 3DC Disease Control

melting point	Compound	pest or weed control at 100 ppm [1, 3]	pest or weed control at 100 ppm [1, 4]	PUCCRT 3DC Disease Control ([2]; 3 Day Curative)	pest or weed control at 100 ppm [2, 5]	pest or weed control at 100 ppm [2, 6]
131 to 133 °C	COc1ccnc(C(=O)N[C@H]2COC(=O)[C@H](Cc3ccc(C)cc3)[C@@H](OC(=O)C(C)C)[C@H](C)OC2=O)c1OCOC(=O)C(C)C [Compound 22]	0 to 50%	0 to 50%		50 to 100%	50 to 100%
159 to 161 °C	COc1ccnc(C(=O)N[C@H]2COC(=O)[C@H](CCOC(=O)c3ccc4c(c3)OCO4)[C@@H](OC(=O)C(C)C)[C@H](C)OC2=O)c1O [Compound 39]	50 to 100%	0 to 50%		50 to 100%	0 to 50%
193 to 195 °C	CC[C@H]1C(=O)OC[C@H](NC(=O)c2nccc(OC)c2O)C(=O)O[C@@H](C)[C@@H]1OC(=O)C(C)C [Compound 53, (3S,6S,7R,8R)-8-ethyl-3-(3-hydroxy-4-methoxypicolinamido)-6-methyl-4,9-dioxo-1,5-dioxonan-7-yl isobutyrate]	50 to 100%	0 to 50%	D	50 to 100%	
153 to 155 °C	COc1ccnc(C(=O)N[C@H]2COC(=O)[C@H](CCOS(C)(=O)=O)[C@@H](OC(=O)C(C)C)[C@H](C)OC2=O)c1O [Compound 56, (3S,6S,7R,8R)-3-(3-hydroxy-4-methoxypicolinamido)-6-methyl-8-(2(methylsulfonyloxy)ethyl)-4,9-dioxo-1,5-dioxonan-7-yl isobutyrate]	0 to 50%	0 to 50%		50 to 100%	0 to 50%
68 to 69 °C	COc1ccnc(C(=O)N[C@H]2COC(=O)[C@H](CCOC(=O)C3CC3)[C@@H](OC(=O)C(C)C)[C@H](C)OC2=O)c1OCOC(=O)C(C)C [Compound 26]	0 to 50%	0 to 50%		50 to 100%	50 to 100%

Further lines, the molecule ahead of its results:

Compound	melting point	pest or weed control at 100 ppm [1, 3]	pest or weed control at 100 ppm [1, 4]	PUCCRT 3DC Disease Control ([2]; 3 Day Curative)	pest or weed control at 100 ppm [2, 5]	pest or weed control at 100 ppm [2, 6]
COc1ccnc(C(=O)N[C@H]2COC(=O)[C@H](CCn3cc(-c4cccc(Cl)c4)nn3)[C@@H](OC(=O)C(C)C)[C@H](C)OC2=O)c1O [Compound 54, (3S,6S,7R,8R)-8-(2-(4-(3-chlorophenyl)-1H-1,2,3-triazol-1-yl)ethyl)-3-(3-hydroxy-4 methoxypicolinamido)-6-methyl-4,9-dioxo-1,5-dioxonan-7-yl isobutyrate]	222 to 224 °C	50 to 100%	0 to 50%	D	50 to 100%	
COc1ccnc(C(=O)N[C@H]2COC(=O)[C@H](CCOC(=O)c3ccc(-c4ccccc4)cc3)[C@@H](OC(=O)C(C)C)[C@H](C)OC2=O)c1O [Compound 40]	178 to 179 °C	50 to 100%	0 to 50%	D	50 to 100%	
COc1ccnc(C(=O)N[C@H]2COC(=O)[C@H](Cc3ccc(F)cc3)[C@@H](OC(=O)C(C)C)[C@H](C)OC2=O)c1O [Compound 1, (3S,6S,7R,8R)-8-(4-fluorobenzyl)-3-(3-hydroxy-4-methoxypicolinamido)-6-methyl-4,9-dioxo-1,5-dioxonan-7-yl isobutyrate]	208 to 210 °C	50 to 100%	0 to 50%		50 to 100%	0 to 50%
COc1ccnc(C(=O)N[C@H]2COC(=O)[C@H](Cc3ccccn3)[C@@H](OC(=O)C(C)C)[C@H](C)OC2=O)c1O [Compound 3]	92 to 95 °C	50 to 100%	50 to 100%		50 to 100%	50 to 100%
COc1ccnc(C(=O)N[C@H]2COC(=O)[C@H](Cc3ccc(-c4ccccc4)cc3)[C@@H](OC(=O)C(C)C)[C@H](C)OC2=O)c1O [Compound 12]	214 to 216 °C	50 to 100%	0 to 50%		50 to 100%	0 to 50%
COc1ccnc(C(=O)N[C@H]2COC(=O)[C@H](Cc3cccnc3)[C@@H](OC(=O)C(C)C)[C@H](C)OC2=O)c1OC(C)=O [Compound 70]	151 to 160 °C	0 to 50%	0 to 50%		50 to 100%	50 to 100%
